Test results: patent US20100137134A1, “Pesticidal Mixtures” (priority 2005, published 2010)

Assays:
[1] = tested on: boll weevil (Anthonomus grandis); test: Control of boll weevil, insect diet with eggs in 24-well microtiter plates (Test B.2); format: in vivo
Protocol: For evaluating control of boll weevil (Anthonomus grandis) the test unit consisted of 24-well-microtiter plates containing an insect diet and 20-30 A. grandis eggs.
The compounds or mixtures were formulated using a solution containing 75% water and 25% DMSO. Different concentrations of formulated compounds or mixtures were sprayed onto the […] at 20 μl, using a custom built micro atomizer, at two replications.
(§1) For experimental mixtures in these tests identical volumes of both mixing partners at the desired concentrations respectively, were mixed together.
After application, microtiter plates were incubated at 23±1° C., 50±5% RH (room humidity) for 5 days. Egg and larval mortality was then visually assessed.

[2] = tested on: vetch aphid (Megoura viciae); test: Control of vetch aphid on broad bean leaf disks in 24-well microtiter plates (Test B.1); format: in vivo
Protocol: For evaluating control of vetch aphid (Megoura viciae) through contact or systemic means the test unit consisted of 24-well-microtiter plates containing broad bean leaf disks.
The compounds or mixtures were formulated using a solution containing 75% water and 25% DMSO (dimethylsulfoxid). Different concentrations of formulated compounds or mixtures were sprayed onto the leaf disks at 2.5 μl, using a custom built micro atomizer, at two replications.
as §1
After application, the leaf disks were air-dried and 5-8 adult aphids placed on the leaf disks inside the microtiter plate wells. The aphids were then allowed to suck on the treated leaf disks and incubated at 23±1° C., 50±5% RH (room humidity) for 5 days. Aphid mortality and fecundity was then visually assessed.

In the case of Cc1cc(C#N)cc(C(=O)NC2CC2)c1NC(=O)c1cc(Br)nn1-c1ncccc1Cl [IA-326/T4], the “Average (Control %)” value ([1]; test compound alone, 0.01 ppm (0 + 0.01), 5 days) is reported as 0% and the “Average (Control %)” value ([1]; test compound alone, 0.03 ppm (0 + 0.03), 5 days) is reported as 0%.
For Cc1cc(C#N)cc(C(N)=O)c1NC(=O)c1cc(Br)nn1-c1ncccc1Cl [IA-26/T4], the “Average (Control %)” value ([2]; test compound alone, 0.1 ppm (0 + 0.1), 5 days) was 0% and the “Average (Control %)” value ([1]; test compound alone, 0.3 ppm (0 + 0.3), 5 days) was 0%.
With O=[N+]([O-])NC1=NCCN1Cc1ccc(Cl)nc1 [Imidacloprid, reference compound] the “Average (Control %)” value ([2]; Imidacloprid alone, 1 ppm (1 + 0), aphid mortality and fecundity after 5 days) was 25% and the “Average (Control %)” value ([1]; Imidacloprid alone, 10 ppm (10 + 0), egg and larval mortality after 5 days) was 0%.
